From patent US3991204A, “Method of using benzopyrans as antiparasitic agents” (American Cyanamid Company, priority 1975, dated 1976)
Values joined by “and” are separate entries in the source; they are usually repeats but may differ in a detail not shown here. Equal entries are not always repeated.

Assays:
Nematospiroides dubius = assay: Efficacy against Nematospiroides dubius in mice (worm count in treated mice versus control average); assay type: in vivo, Nematospiroides dubius (host: Swiss Webster mice); design: key to % Eff. N.d. (class symbol): Active; Inactive; settings: for inhibition in vivo at 0.05 % / inhibition in vivo at 0.1 %: po, 168 h; for inhibition in vivo at 0.05 %: drug diet 0.05% for 7 days; for inhibition in vivo at 0.1 %: drug diet 0.1% for 7 days
Method: (§1) Efficacy of 4-Hydroxy-2-oxo-2H-1-benzopyran-3-carboxanilide derivatives against various helminths in mice
(§2) Six weeks old Swiss Webster mice are orally inoculated with Nematospiroides dubius, Hymenolepis nana and Aspicularis tetraptera. Eighteen days postinoculation the mice are treated with the appropriate drug diet level for 7 days. For single oral dose administration the compound is thoroughly mixed with 0.1 percent agar and orally intubated at the required dosage 22 days postinfection. 10-15,000 Ascaris suum infective eggs are administered to mice after 1 day on diet medication or 3 days prior to single oral dose administration. Determination of efficacy is done by counting all the N. dubius in treated mice versus the control average. For H. nana and A. tetraptera the absence or presence of these parasites in treated mice is the criterior for determining activity. For A. suum activity the following criterion was used. Reduction or elimination of lung pathology and the total number of lung larvae from treated animals was compared to lung larvae recovered from controls.

Haemonchus contortus = assay: Evaluation (efficacy) test in experimentally inoculated sheep, Haemonchus contortus; assay type: in vivo, Haemonchus contortus (host: lambs); settings: intraruminal dose 50 mg/kg
Method: (§3) Evaluation (Efficacy) Test in Sheep
(§4) Lambs are experimentally inoculated with Haemonchus contortus (H.c.), Trichostrongylus axei (T.a.), Ostertagia circumcincta (O.c) and Trichostrongylus colubriformis (T.c.) species. At patency of the parasites the lambs are treated with 50 mg/kg of body weight with the compound under test administered as an intraruminal injection in 0.2 percent agar. Three days post treatment treated lambs and similary inoculated controls are necropsied and examined for parasites. Percent efficacy is calculated by comparing the average worm burden in the treated group with the average worm burden in the control group.

[1] = system: Trichostrongylus colubriformis; assay: Evaluation (efficacy) test in experimentally inoculated sheep, Trichostrongylus colubriformis; assay type: in vivo, Trichostrongylus colubriformis (host: lambs); settings: intraruminal dose 50 mg/kg
Method: as §3, §4

[2] = system: Trichostrongylus vitrinus; assay: Efficacy against naturally occurring parasitic infestation in sheep, Trichostrongylus vitrinus male; assay type: in vivo, Trichostrongylus vitrinus (host: lambs); settings: naturally infected sheep, single oral dose 100 mg/kg
Method: (§5) Efficacy of 3',4'-Dichloro-4-hydroxy-2-oxo-2H-1-benzopyran-3 -carboxanilideagainst Naturally Occurring Parasitic
(§6) Lambs naturally infected with a number of parasitic species are treated with 100 mg/kg of body weight with the compound under tested administration as a single oral dose. After treatment, 24 hour fecal outputs for 3 days are collected from each animal and examined for the passage of parasites. Three days post treatment the lambs are necropsied and examined for parasites. Percent efficacy is calculated using the formula: [formula]

Bunostomum = assay: Efficacy against naturally occurring parasitic infestation in sheep, Bunostomum; assay type: in vivo, Bunostomum (host: lambs); settings: naturally infected sheep, single oral dose 100 mg/kg
Method: as §5, §6

Hymenolepis nana = assay: Efficacy against Hymenolepis nana in mice (absence or presence of parasites); assay type: in vivo, Hymenolepis nana (host: Swiss Webster mice); design: key: Active; Inactive
Method: as §1, §2

Ostertagia circumcincta = assay: Evaluation (efficacy) test in experimentally inoculated sheep, Ostertagia circumcincta; assay type: in vivo, Ostertagia circumcincta (host: lambs); settings: intraruminal dose 50 mg/kg
Method: as §3, §4

Cooperia punctata = assay: Efficacy against naturally occurring parasitic infestation in sheep, Cooperia punctata; assay type: in vivo, Cooperia punctata (host: lambs); settings: naturally infected sheep, single oral dose 100 mg/kg
Method: as §5, §6

[3] = system: Trichostrongylus colubriformis; assay: Efficacy against naturally occurring parasitic infestation in sheep, Trichostrongylus colubriformis male; assay type: in vivo, Trichostrongylus colubriformis (host: lambs); settings: naturally infected sheep, single oral dose 100 mg/kg
Method: as §5, §6

[4] = system: Trichostrongylus colubriformis; assay: Evaluation against Trichostrongylus colubriformis in the Mongolian gerbil; assay type: in vivo, Trichostrongylus colubriformis (host: Mongolian gerbil)
Method: Evaluation of 3',4'-Dichloro-4-hydroxy-2-oxo-2H-1-benzopyran-3-carboxanilide against Trichlostrongylus colubriformis in the Mongolian Gerbil Monogolian gerbils are inoculated with 2000 T. colubriformis larvae each. Fourteen to 94 days post inoculation the gerbils are treated with the appropiate drug level diet for 6 days. For single oral dose administration the compound is thoroughly mixed with 0.1 percent agar and orally intubated at the required level. After treatment, 24 hour fecal outputs for 3 days are collected from each animal and examined for passage of parasites. Three days post treatment the gerbils are necropsied and examined for parasites. Percent efficacy is calculated using the formula: [formula]

Trichostrongylus axei = assay: Evaluation (efficacy) test in experimentally inoculated sheep, Trichostrongylus axei; assay type: in vivo, Trichostrongylus axei (host: lambs); settings: intraruminal dose 50 mg/kg
Method: as §3, §4

Ascaris suum = assay: Efficacy against Ascaris suum in mice (lung pathology and lung larvae versus controls); assay type: in vivo, Ascaris suum (host: Swiss Webster mice); design: key: Active; Inactive
Method: as §1, §2

Aspicularis tetraptera = assay: Efficacy against Aspicularis tetraptera in mice (absence or presence of parasites); assay type: in vivo, Aspicularis tetraptera (host: Swiss Webster mice); design: key: Active; Inactive
Method: as §1, §2

[5] = Heligmosomoides polygyrus, read-out: % Eff. N.d.

O=C(Nc1ccc(Cl)c(Cl)c1)c1c(O)c2ccccc2oc1=O [Example 1, 3',4'-Dichloro-4-hydroxy-2-oxo-2H-1-benzopyran-3-carboxanilide]
inhibition in vivo at 0.05 % (Nematospiroides dubius; [5]): 85%
inhibition in vivo at 0.1 % (Nematospiroides dubius; [5]): 100%
inhibition in vivo at 2000 mg/kg (Nematospiroides dubius; Heligmosomoides polygyrus, single oral dose 2000 mg/kg, read-out: % Eff. N.d.): 55%
% Eff. N.d. (class symbol) (Nematospiroides dubius; single oral dose 100 mg/kg): i
% Eff. N.d. (class symbol) (Nematospiroides dubius; single oral dose 500 mg/kg): i
% Eff. N.d. (class symbol) (Nematospiroides dubius; single oral dose 1000 mg/kg): i
% Efficacy H.c. (Haemonchus contortus): 100%
% Efficacy T.c. [1]: 35%
% Efficacy T.v. Male [2]: 100% and 79%
% Efficacy Bun. (Bunostomum): 100%
H.n. activity (Hymenolepis nana; drug diet 0.05% for 7 days): i
H.n. activity (Hymenolepis nana; drug diet 0.1% for 7 days): A
H.n. activity (Hymenolepis nana; single oral dose 100 mg/kg): i
H.n. activity (Hymenolepis nana; single oral dose 500 mg/kg): i
H.n. activity (Hymenolepis nana; single oral dose 1000 mg/kg): i
% Efficacy O.c. (Ostertagia circumcincta): 86%
% Efficacy C.p. (Cooperia punctata): 100%
% Efficacy T.c. Male [3]: 85% and 61%
% Efficacy ([4]; 0.05% drug in feed × 6 Days): 82%
% Efficacy ([4]; single oral dose 100 mg/kg): 40%
% Efficacy ([4]; single oral dose 500 mg/kg): 100%
% Efficacy T.a. (Trichostrongylus axei): 0%
A.s. activity (Ascaris suum; drug diet 0.05% for 7 days): i
A.s. activity (Ascaris suum; drug diet 0.1% for 7 days): i
A.s. activity (Ascaris suum; single oral dose 100 mg/kg): i
A.s. activity (Ascaris suum; single oral dose 500 mg/kg): A
A.s. activity (Ascaris suum; single oral dose 1000 mg/kg): A
A.s. activity (Ascaris suum; single oral dose 2000 mg/kg): A
A.t. activity (Aspicularis tetraptera; drug diet 0.1% for 7 days): A
A.t. activity (Aspicularis tetraptera; single oral dose 100 mg/kg): A
A.t. activity (Aspicularis tetraptera; single oral dose 500 mg/kg): A
A.t. activity (Aspicularis tetraptera; single oral dose 1000 mg/kg): i

O=C(Nc1cccc(Cl)c1)c1c(O)c2ccccc2oc1=O [Example 2]
inhibition in vivo at 0.05 % (Nematospiroides dubius; [5]): 46%
inhibition in vivo at 0.1 % (Nematospiroides dubius; [5]): 65%
H.n. activity (Hymenolepis nana; drug diet 0.05% for 7 days): i
H.n. activity (Hymenolepis nana; drug diet 0.1% for 7 days): A
A.s. activity (Ascaris suum; drug diet 0.05% for 7 days): i
A.s. activity (Ascaris suum; drug diet 0.1% for 7 days): i
A.t. activity (Aspicularis tetraptera; drug diet 0.05% for 7 days): i
A.t. activity (Aspicularis tetraptera; drug diet 0.1% for 7 days): A

O=C(Nc1ccc(F)cc1)c1c(O)c2ccccc2oc1=O [Example 3]
inhibition in vivo at 0.1 % (Nematospiroides dubius; [5]): 54%
H.n. activity (Hymenolepis nana; drug diet 0.1% for 7 days): A
A.s. activity (Ascaris suum; drug diet 0.1% for 7 days): i
A.t. activity (Aspicularis tetraptera; drug diet 0.1% for 7 days): i

O=C(Nc1cccc(F)c1)c1c(O)c2ccccc2oc1=O [Example 4]
inhibition in vivo at 0.1 % (Nematospiroides dubius; [5]): 77%
H.n. activity (Hymenolepis nana; drug diet 0.1% for 7 days): i
A.s. activity (Ascaris suum; drug diet 0.1% for 7 days): i
A.t. activity (Aspicularis tetraptera; drug diet 0.1% for 7 days): i

O=C(Nc1ccccc1F)c1c(O)c2ccccc2oc1=O [Example 5]
inhibition in vivo at 0.1 % (Nematospiroides dubius; [5]): 66%
H.n. activity (Hymenolepis nana; drug diet 0.1% for 7 days): i
A.s. activity (Ascaris suum; drug diet 0.1% for 7 days): i
A.t. activity (Aspicularis tetraptera; drug diet 0.1% for 7 days): i

O=C(Nc1ccc(F)cc1F)c1c(O)c2ccccc2oc1=O [Example 6]
inhibition in vivo at 0.1 % (Nematospiroides dubius; [5]): 94%
H.n. activity (Hymenolepis nana; drug diet 0.1% for 7 days): i
A.s. activity (Ascaris suum; drug diet 0.1% for 7 days): i
A.t. activity (Aspicularis tetraptera; drug diet 0.1% for 7 days): A

O=C(Nc1cc(F)ccc1F)c1c(O)c2ccccc2oc1=O [Example 7]
inhibition in vivo at 0.1 % (Nematospiroides dubius; [5]): 41%
H.n. activity (Hymenolepis nana; drug diet 0.1% for 7 days): i
A.s. activity (Ascaris suum; drug diet 0.1% for 7 days): i
A.t. activity (Aspicularis tetraptera; drug diet 0.1% for 7 days): i

O=C(Nc1ccc(Cl)cc1Cl)c1c(O)c2ccccc2oc1=O [Example 8]
inhibition in vivo at 0.05 % (Nematospiroides dubius; [5]): 94%
inhibition in vivo at 0.1 % (Nematospiroides dubius; [5]): 100%
H.n. activity (Hymenolepis nana; drug diet 0.05% for 7 days): i
H.n. activity (Hymenolepis nana; drug diet 0.1% for 7 days): i
A.s. activity (Ascaris suum; drug diet 0.05% for 7 days): i
A.s. activity (Ascaris suum; drug diet 0.1% for 7 days): i
A.t. activity (Aspicularis tetraptera; drug diet 0.05% for 7 days): A
A.t. activity (Aspicularis tetraptera; drug diet 0.1% for 7 days): A
